{"source": "ChEMBL document CHEMBL4622865", "about": "“Sulfonamide-based 4-anilinoquinoline derivatives as novel dual Aurora kinase (AURKA/B) inhibitors: Synthesis, biological evaluation and in silico insights” (Bioorg Med Chem, 2020)", "key": {"EKVX": {"tested_on": "EKVX", "experiment": "Antitumor activity against human EKVX cells assessed as growth inhibition at 10-'5 M incubated for 48 hrs by SRB assay relative to control", "assay_type": "functional"}, "Aurora kinase B [1]": {"biological_target": "T1, Aurora kinase B (Homo sapiens, UniProt Q96GD4)", "T1 sequence (Q96GD4 whole entry)": "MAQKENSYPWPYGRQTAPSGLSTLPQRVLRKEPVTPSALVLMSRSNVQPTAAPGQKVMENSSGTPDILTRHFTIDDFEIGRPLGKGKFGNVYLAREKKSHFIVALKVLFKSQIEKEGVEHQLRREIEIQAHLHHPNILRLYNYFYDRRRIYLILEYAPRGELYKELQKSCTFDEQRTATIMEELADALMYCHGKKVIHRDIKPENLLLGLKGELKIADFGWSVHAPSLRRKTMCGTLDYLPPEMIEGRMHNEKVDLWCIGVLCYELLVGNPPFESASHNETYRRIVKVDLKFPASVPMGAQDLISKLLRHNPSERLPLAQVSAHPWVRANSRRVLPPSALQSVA", "experiment": "Inhibition of human Aurora B using [H-LRRASLG] as substrate in presence of [gamma-33P]-ATP incubated for 2 hrs by hotspot kinase assay"}, "KM12": {"tested_on": "KM12", "experiment": "Antitumor activity against human KM12 cells assessed as growth inhibition at 10-'5 M incubated for 48 hrs by SRB assay relative to control", "assay_type": "functional"}, "Aurora kinase A": {"biological_target": "T2, Aurora kinase A (Homo sapiens, UniProt O14965)", "T2 sequence (O14965 whole entry)": "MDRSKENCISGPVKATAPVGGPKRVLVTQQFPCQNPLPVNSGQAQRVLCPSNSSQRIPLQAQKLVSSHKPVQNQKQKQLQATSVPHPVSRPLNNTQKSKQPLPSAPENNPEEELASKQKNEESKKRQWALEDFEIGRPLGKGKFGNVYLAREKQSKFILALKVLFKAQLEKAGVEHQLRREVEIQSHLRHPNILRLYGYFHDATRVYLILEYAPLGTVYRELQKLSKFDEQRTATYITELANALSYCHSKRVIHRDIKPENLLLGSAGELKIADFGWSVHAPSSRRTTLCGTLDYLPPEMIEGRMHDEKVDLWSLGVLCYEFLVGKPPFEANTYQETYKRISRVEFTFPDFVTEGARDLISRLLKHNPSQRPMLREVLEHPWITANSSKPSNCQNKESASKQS", "experiment": "Inhibition of human Aurora A using [H-LRRASLG] as substrate in presence of [gamma-33P]-ATP incubated for 2 hrs by hotspot kinase assay"}, "[2]": {"biological_target": "T3, Aurora kinase A (Homo sapiens) (UniProt O14965)", "T3 sequence (whole entry)": "T2 sequence (O14965 whole entry)", "experiment": "Inhibition of human Aurora A using [H-LRRASLG] as substrate at 20 uM in presence of [gamma-33P]-ATP incubated for 2 hrs by hotspot kinase assay relative to control"}, "Aurora kinase B [3]": {"biological_target": "T1, Aurora kinase B", "experiment": "Inhibition of human Aurora B using [H-LRRASLG] as substrate at 20 uM in presence of [gamma-33P]-ATP incubated for 2 hrs by hotspot kinase assay relative to control"}, "Homo sapiens": {"species": "Homo sapiens", "experiment": "Selectivity ratio of IC50 for inhibition of human AURKB to IC50 for inhibition of human AURKA"}, "NCI/ADR-RES": {"tested_on": "NCI/ADR-RES", "experiment": "Antitumor activity against human NCI-ADR-RES cells assessed as growth inhibition at 10-'5 M incubated for 48 hrs by SRB assay relative to control", "assay_type": "functional"}, "UO-31": {"tested_on": "UO-31", "experiment": "Antitumor activity against human UO31 cells assessed as growth inhibition at 10-'5 M incubated for 48 hrs by SRB assay relative to control", "assay_type": "functional"}, "HCT-15": {"tested_on": "HCT-15", "experiment": "Antitumor activity against human HCT15 cells assessed as growth inhibition at 10-'5 M incubated for 48 hrs by SRB assay relative to control", "assay_type": "functional"}, "NCI-H522": {"tested_on": "NCI-H522", "experiment": "Antitumor activity against human NCI-H522 cells assessed as growth inhibition at 10-'5 M incubated for 48 hrs by SRB assay relative to control", "assay_type": "functional"}, "A498": {"tested_on": "A498", "experiment": "Antitumor activity against human A498 cells assessed as growth inhibition at 10-'5 M incubated for 48 hrs by SRB assay relative to control", "assay_type": "functional"}, "K562": {"tested_on": "K562", "experiment": "Antitumor activity against human K562 cells assessed as growth inhibition at 10^-5 M incubated for 48 hrs by SRB assay relative to control", "assay_type": "functional", "conditions": "K562, 48 h, read-out: GI"}, "MCF7": {"tested_on": "MCF7", "experiment": "Antitumor activity against human MCF7 cells assessed as growth inhibition at 10-'5 M incubated for 48 hrs by SRB assay relative to control", "assay_type": "functional"}, "T47D": {"tested_on": "T47D", "experiment": "Antitumor activity against human T47D cells assessed as growth inhibition at 10-'5 M incubated for 48 hrs by SRB assay relative to control", "assay_type": "functional"}, "[4]": {"experiment": "Antitumor activity against human […] cells assessed as growth inhibition at 10-'5 M incubated for 48 hrs by SRB assay relative to control", "assay_type": "functional"}, "SN12C": {"tested_on": "SN12C", "experiment": "Antitumor activity against human SN12C cells assessed as growth inhibition at 10-'5 M incubated for 48 hrs by SRB assay relative to control", "assay_type": "functional"}, "PC-3": {"tested_on": "PC-3", "experiment": "Antitumor activity against human PC3 cells assessed as growth inhibition at 10-'5 M incubated for 48 hrs by SRB assay relative to control", "assay_type": "functional"}, "SF-268": {"tested_on": "SF-268", "experiment": "Antitumor activity against human SF268 cells assessed as growth inhibition at 10-'5 M incubated for 48 hrs by SRB assay relative to control", "assay_type": "functional"}, "SK-OV-3": {"tested_on": "SK-OV-3", "experiment": "Antitumor activity against human SKOV3 cells assessed as growth inhibition at 10-'5 M incubated for 48 hrs by SRB assay relative to control", "assay_type": "functional"}, "HT-29": {"tested_on": "HT-29", "experiment": "Antitumor activity against human HT-29 cells assessed as growth inhibition at 10-'5 M incubated for 48 hrs by SRB assay relative to control", "assay_type": "functional"}, "HOP-92": {"tested_on": "HOP-92", "experiment": "Antitumor activity against human HOP92 cells assessed as growth inhibition at 10-'5 M incubated for 48 hrs by SRB assay relative to control", "assay_type": "functional"}, "LOX IMVI": {"tested_on": "LOX IMVI", "experiment": "Antitumor activity against human LOXIMVI cells assessed as growth inhibition at 10-'5 M incubated for 48 hrs by SRB assay relative to control", "assay_type": "functional"}, "CAKI-1": {"tested_on": "CAKI-1", "experiment": "Antitumor activity against human CAKI-1 cells assessed as growth inhibition at 10-'5 M incubated for 48 hrs by SRB assay relative to control", "assay_type": "functional"}, "UACC-62": {"tested_on": "UACC-62", "experiment": "Antitumor activity against human UACC62 cells assessed as growth inhibition at 10-'5 M incubated for 48 hrs by SRB assay relative to control", "assay_type": "functional"}, "RXF 393": {"tested_on": "RXF 393", "experiment": "Antitumor activity against human RXF393 cells assessed as growth inhibition at 10-'5 M incubated for 48 hrs by SRB assay relative to control", "assay_type": "functional"}, "SR": {"tested_on": "SR", "experiment": "Antitumor activity against human SR cells assessed as growth inhibition at 10-'5 M incubated for 48 hrs by SRB assay relative to control", "assay_type": "functional"}, "786-0": {"tested_on": "786-0", "experiment": "Antitumor activity against human 786-O cells assessed as growth inhibition at 10-'5 M incubated for 48 hrs by SRB assay relative to control", "assay_type": "functional"}, "ACHN": {"tested_on": "ACHN", "experiment": "Antitumor activity against human ACHN cells assessed as growth inhibition at 10-'5 M incubated for 48 hrs by SRB assay relative to control", "assay_type": "functional"}, "SK-MEL-5": {"tested_on": "SK-MEL-5", "experiment": "Antitumor activity against human SK-MEL-5 cells assessed as growth inhibition at 10-'5 M incubated for 48 hrs by SRB assay relative to control", "assay_type": "functional"}, "SNB-19": {"tested_on": "SNB-19", "experiment": "Antitumor activity against human SNB19 cells assessed as growth inhibition at 10-'5 M incubated for 48 hrs by SRB assay relative to control", "assay_type": "functional"}, "M14": {"tested_on": "M14", "experiment": "Antitumor activity against human M14 cells assessed as growth inhibition at 10-'5 M incubated for 48 hrs by SRB assay relative to control", "assay_type": "functional"}, "HCT-116": {"tested_on": "HCT-116", "experiment": "Antitumor activity against human HCT116 cells assessed as growth inhibition at 10-'5 M incubated for 48 hrs by SRB assay relative to control", "assay_type": "functional"}}, "data": [{"smiles": "CCOC(=O)c1cnc2ccc(C)cc2c1Nc1cccc(NS(C)(=O)=O)c1", "values": [{"measurement": "growth inhibition (GI)", "setting": "EKVX", "result": ">=20%"}, {"measurement": "IC50", "setting": "Aurora kinase B [1]", "result": 2990, "unit": "nM"}, {"measurement": "growth inhibition (GI)", "setting": "KM12", "result": ">50", "unit": "%"}, {"measurement": "IC50", "setting": "Aurora kinase A", "result": 980, "unit": "nM"}, {"measurement": "inhibition", "setting": "[2]", "result": 64.4, "unit": "%"}, {"measurement": "inhibition", "setting": "Aurora kinase B [3]", "result": 81, "unit": "%"}, {"measurement": "Ratio IC50", "setting": "Homo sapiens", "result": 3}]}, {"smiles": "CCOC(=O)c1cnc2ccc(Br)cc2c1Nc1cccc(S(=O)(=O)NC)c1", "values": [{"measurement": "growth inhibition (GI)", "setting": "NCI/ADR-RES", "result": ">=20%"}, {"measurement": "growth inhibition (GI)", "setting": "UO-31", "result": ">=20%"}, {"measurement": "inhibition", "setting": "[2]", "result": 10.7, "unit": "%"}, {"measurement": "growth inhibition (GI)", "setting": "HCT-15", "result": ">=20%"}, {"measurement": "inhibition", "setting": "Aurora kinase B [3]", "result": 21.4, "unit": "%"}, {"measurement": "growth inhibition (GI)", "setting": "NCI-H522", "result": ">=20%"}, {"measurement": "growth inhibition (GI)", "setting": "A498", "result": ">=20%"}]}, {"smiles": "CCOC(=O)c1cnc2cc(Cl)cc(Cl)c2c1Nc1cccc(S(=O)(=O)NC)c1", "values": [{"measurement": "inhibition of growth at 10 µM", "setting": "K562", "result": 35, "unit": "%"}, {"measurement": "growth inhibition (GI)", "setting": "NCI/ADR-RES", "result": ">=25%"}, {"measurement": "growth inhibition (GI)", "setting": "MCF7", "result": 30, "unit": "%"}, {"measurement": "growth inhibition (GI)", "setting": "T47D", "result": ">=25%"}, {"measurement": "growth inhibition (GI)", "setting": "[4]", "result": 64, "unit": "%"}, {"measurement": "growth inhibition (GI)", "setting": "SN12C", "result": ">=25%"}, {"measurement": "IC50", "setting": "Aurora kinase B [1]", "result": 90, "unit": "nM"}, {"measurement": "growth inhibition (GI)", "setting": "PC-3", "result": 30, "unit": "%"}, {"measurement": "growth inhibition (GI)", "setting": "SF-268", "result": ">=25%"}, {"measurement": "growth inhibition (GI)", "setting": "KM12", "result": 64, "unit": "%"}, {"measurement": "growth inhibition (GI)", "setting": "SK-OV-3", "result": 31, "unit": "%"}, {"measurement": "IC50", "setting": "Aurora kinase A", "result": 930, "unit": "nM"}, {"measurement": "growth inhibition (GI)", "setting": "HT-29", "result": ">=25%"}, {"measurement": "growth inhibition (GI)", "setting": "HOP-92", "result": 53, "unit": "%"}, {"measurement": "growth inhibition (GI)", "setting": "LOX IMVI", "result": ">=25%"}, {"measurement": "growth inhibition (GI)", "setting": "UO-31", "result": 50, "unit": "%"}, {"measurement": "growth inhibition (GI)", "setting": "CAKI-1", "result": 41, "unit": "%"}, {"measurement": "growth inhibition (GI)", "setting": "UACC-62", "result": 34, "unit": "%"}, {"measurement": "inhibition", "setting": "[2]", "result": 58.6, "unit": "%"}, {"measurement": "growth inhibition (GI)", "setting": "RXF 393", "result": 33, "unit": "%"}, {"measurement": "growth inhibition (GI)", "setting": "HCT-15", "result": 34, "unit": "%"}, {"measurement": "inhibition", "setting": "Aurora kinase B [3]", "result": 90.8, "unit": "%"}, {"measurement": "growth inhibition (GI)", "setting": "NCI-H522", "result": 35, "unit": "%"}, {"measurement": "growth inhibition (GI)", "setting": "SR", "result": ">=25%"}, {"measurement": "growth inhibition (GI)", "setting": "A498", "result": 54, "unit": "%"}, {"measurement": "growth inhibition (GI)", "setting": "786-0", "result": ">=25%"}, {"measurement": "growth inhibition (GI)", "setting": "ACHN", "result": 39, "unit": "%"}, {"measurement": "growth inhibition (GI)", "setting": "SK-MEL-5", "result": 31, "unit": "%"}, {"measurement": "growth inhibition (GI)", "setting": "SNB-19", "result": ">=25%"}]}, {"smiles": "CCOC(=O)c1cnc2ccccc2c1Nc1cccc(NS(C)(=O)=O)c1", "values": [{"measurement": "growth inhibition (GI)", "setting": "M14", "result": ">50", "unit": "%"}, {"measurement": "IC50", "setting": "Aurora kinase B [1]", "result": 13200, "unit": "nM"}, {"measurement": "growth inhibition (GI)", "setting": "HCT-116", "result": ">50", "unit": "%"}, {"measurement": "IC50", "setting": "Aurora kinase A", "result": 13400, "unit": "nM"}, {"measurement": "inhibition", "setting": "[2]", "result": 71.9, "unit": "%"}, {"measurement": "inhibition", "setting": "Aurora kinase B [3]", "result": 56.6, "unit": "%"}, {"measurement": "growth inhibition (GI)", "setting": "786-0", "result": ">=20%"}]}, {"smiles": "CCOC(=O)c1cnc2ccc(C)cc2c1Nc1cccc(S(=O)(=O)NC)c1", "values": [{"measurement": "inhibition", "setting": "[2]", "result": 6.43, "unit": "%"}, {"measurement": "inhibition", "setting": "Aurora kinase B [3]", "result": 18.7, "unit": "%"}]}]}
